Assay results reported in patent US5783700A, “Quinolic acid derivatives” (priority 1997, dated 1998).

Legend:
TTE seizure = experiment: Threshold tonic extension (TTE) test, ip; assay type: in vivo, male Carworth Farms no. 1 mice; conditions: for minimal effective dose at 100 mg/kg: Mus musculus, ip 100 mg/kg, 1/4 to 4 hr post treatment, 12.5 mA, bracketed = maximum ineffective dose (given as >), unbracketed = effective dose (=), read-out: TTE: effective or [maximum ineffective] intraperitoneal dose
Protocol: (§1) Biological Testing--Compounds were screened for anticonvulsant activity in male Carworth Farms no. 1 mice. The maximal electroshock (MES), subcutaneous Metrazol (pentylenetetrazole) (Met), and threshold tonic extension (TTE) tests were used to evaluate compounds for anticonvulsive activity. A rotorod protocol was used to determine neurotoxicity. Solutions for injection were prepared in 30% polyethylene glycol 400. Except for the TTE tests, animals were dosed ip at two different time periods: either 30 min. or 4 hr prior to testing. At each time period, three groups of four mice were tested at the following dose levels: 30, 100, and 300 mg/kg. This treatment protocol was followed for MES, Met, and rotorod testing.
The threshold tonic extension (TTE) test is similar to the MES screen but uses a lower level of electrical current (Piredda et al., 1985). The lower current makes the test more sensitive but less discriminate than the MES screen. Twenty mice were pretreated ip with 100 mg/kg of the test compound. At time intervals of 1/4, 1/2, 1, 2, and 4 hr post treatment, 4 mice were challenged with 12.5 mA of electrical current for 0.2 sec. via corneal electrodes. This current produces a TTE seizure in untreated animals. Protection was defined as an absence of seizures. Additional TTE testing was conducted on compound 10 to determine the ED50 value for the observed protective effect. In this case, 6 groups containing either 8 or 16 animals were injected ip and tested two hours following treatment. Each group received a specified dose ranging from 20-500 mg/kg. An ED50 value was determined from a log dose-response plot of the resulting data.

[1] = Rotorod test for drug induced neurological deficit (neurotoxicity), ip; assay type: in vivo, male Carworth Farms no. 1 mice; conditions: for Rotorod: effective or [maximum ineffective] intraperitoneal dose: neurotoxicity, 30 min or 4 hr, 30, 100, 300 mg/kg, bracketed = maximum ineffective dose (given as >), unbracketed = effective (neurotoxic) dose (=)
Protocol: as §1
Animals were tested for drug induced neurological deficit using a rotorod. Either 30 min. or 4 hr after treatment, the animal was placed on a 1-inch diameter knurled plastic rod rotating at 6 rpm. Neurological deficit was defined as the failure of the animal to remain on the rod for 1 min.

[2] = target: T1, glycine binding site on the NMDA receptor (Rattus norvegicus, UniProt P35439); experiment: Inhibition of [^3 H]-5,7-dichlorokynurenic acid specific binding; assay type: rat (cerebral cortex membranes); conditions: 10 nM radioligand, pH 7.4, mean ± SEM of three determinations; for remaining activity at 10 µM: 0.25 h, pH 7.4, 10 uM test compound, read-out: Inhibition of [^3 H]-5,7-Dichlorokynurenic Acid Binding, % of Control; for Inhibition of [^3 H]-5,7-Dichlorokynurenic Acid Binding, % of Control: 10 uM test compound, 15 min, 10 µM
T1 construct: Membranes were prepared from rat cerebral cortex; from tissue; host or cells: rat cerebral cortex, "buffy coat" membrane fragments
Protocol: Binding Studies--The procedure of Baron et al. (1991) was used to assay for the inhibition of specific binding at the glycine binding site on the NMDA receptor. The labeled ligand used in this assay was [^3 H]-5,7-dichlorokynurenic acid (15.8 Ci/mmol) from DuPont-New England Nuclear (Boston, Mass.). […] Inhibition of specific binding was determined for selected compounds at a concentration of 10 uM using "buffy coat" membrane fragments (Jones et al., 1989). Membranes were prepared from rat cerebral cortex and assays were conducted in 50 mM HEPES-KOH buffer (Sigma, St. Louis, Mo.) at pH 7.4. Membranes were incubated in a final volume of 1 mL containing 10 nM [^3 H]-5,7-dichlorokynurenic acid. Incubation was continued for 15 min. at 4° C. Nonspecific binding was determined in the presence of 1 mM glycine and subtracted. Binding was terminated by centrifugation at 48,000×g for 10 min. Each of the resultant pellets was washed rapidly with 1 mL ice water and solubilized with 1 mL of a tissue solubilizer (Solvable, DuPont NEN). The solubilized samples were each dissolved in 10 mL 3a70B Complete Counting Cocktail (RPI, Mount Prospect, Ill.). Membrane bound radioactivity was determined using a Beckman LS-5000TD liquid scintillation counter. This screening procedure was conducted in triplicate in three separate tests. Results are presented as percent of control (±SEM, standard error of the mean).

| Compound | minimal effective dose at 100 mg/kg (TTE seizure) [mg/kg] | Rotorod: effective or [maximum ineffective] intraperitoneal dose [1] [mg/kg] | neurotoxicity in rotorod test [1] | remaining activity at 10 µM [2] [%] | Inhibition of [^3 H]-5,7-Dichlorokynurenic Acid Binding, % of Control [2] | TTE anticonvulsant activity (TTE seizure; ip, 100 mg/kg) |
| --- | --- | --- | --- | --- | --- | --- |
| CCOC(=O)c1cc(NC(=O)N(CC)CC)c2c(Cl)cc(Cl)cc2n1 [Compound 2] | 100 | > 300 | – | – | – | – |
| CCN(CC)C(=O)Nc1cc(C(=O)O)nc2cc(Cl)cc(Cl)c12 [Compound 3] | > 100 | 300 | neurotoxic | – | – | – |
| CCCCN(CCCC)C(=O)Nc1cc(C(=O)OCC)nc2cc(Cl)cc(Cl)c12 [Compound 6] | 100 | > 300 | – | 76 ± 6 | – | – |
| CCCCN(CCCC)C(=O)Nc1cc(C(=O)O)nc2cc(Cl)cc(Cl)c12 [Compound 7] | 100 | > 300 | – | 20 ± 11 | 20-30 % of Control | – |
| CCOC(=O)c1cc(NC(=O)N(c2ccccc2)c2ccccc2)c2c(Cl)cc(Cl)cc2n1 [Compound 8] | 100 | > 300 | – | 77 ± 7 | – | – |
| O=C(O)c1cc(NC(=O)N(c2ccccc2)c2ccccc2)c2c(Cl)cc(Cl)cc2n1 [Compound 9] | 100 | > 300 | – | 25 ± 5 | 20-30 % of Control | – |
| CCOC(=O)c1cc(NC(=O)N(c2ccccc2)c2cccc(OC)c2)c2c(Cl)cc(Cl)cc2n1 [Compound 11] | 100 | > 300 | – | – | – | active |
